Reference: patent US8702927B2, “Multiple-electrode and metal-coated probes” (The Trustees Of The University Of Pennsylvania, priority 2009, dated 2014)
Values joined by “and” are separate entries in the source; they are usually repeats but may differ in a detail not shown here. Equal entries are not always repeated.

How the values were obtained:
[1] = system: HT-22 cells; assay: CNP-recorded membrane potential of HT-22 cells during ionic (K+) enrichment, current-clamp; type: cell-based, mouse; details: for depolarization of membrane potential: KCl added to cell bath; for time for cell to return to its RMP: after KCl
From the text: Because the cell membrane is highly permeable to potassium ions (K^+), an increase or decrease in extracellular K+ concentration will, respectively, cause a resting cell to depolarize (membrane potential becoming more positive) or hyperpolarize (membrane potential becoming more negative). Utilizing CNPs, variations in membrane potential were monitored over tens of minutes. FIG. 8A is a recording of membrane potential from an HT-22 cell during perfusion intervals with normal HBSS and K+-enriched HBSS (additional 5 mM K^+). […] After approximately 2 min at higher extracellular K^+, the cell was perfused with normal HBSS and the cell slowly returned to its RMP.
Next, a CNP was used to measure changes in membrane potential during repetitive extracellular administration of KCl [FIG. 8B]. After penetrating the cell, as indicated by the arrow in FIG. 8B, the CNP measured a stable RMP under normal HBSS perfusion (Emp=−68 mV). […] Under constant perfusion in normal HBSS, the membrane potential returned to its original value after […]. The results were reproducible with high fidelity.
FIG. 8C is a representation of potential variations as a function of time during the administration of HBSS and the varied K+-enrichment of HBSS (additional 5 and 15 mM K^+). […] As normal HBSS perfusion brought the bath back to its initial K+ concentration, the cell returned to its RMP in ˜90 seconds.
The mouse hippocampal cell line HT-22 was kindly provided by Dr. David Schubert (The Salk Institute, San Diego, Calif.). Cells were grown in Dulbecco's Modified Eagle Medium (DMEM, high glucose) supplemented with 10% fetal bovine serum (FBS) and 1% antibiotics. The cells were plated on 12 mm cover slips 48 hrs prior to the electrophysiology measurements. The cells on the cover slips were incubated in HBSS (with calcium and magnesium) at room temperature for 10 min prior to measurements. The cover slips were subsequently placed in an open diamond perfision bath (Warner Instruments Corp., RC-22C) positioned on an upright microscope (Nikon eclipse E600FN, 40× water-immersion lens, Burleigh Gibraltar fixed-stage platform) located atop a vibration-isolation table. Cells were routinely perfised with HBSS at a flow rate of 1.0 mllmin.
Membrane potential measurements were recorded with an Axon AxoClamp-2A amplifier equipped with a headstage for high resistance electrodes (Axon HS2-XO.OlMU) and Digidata 1322A digitizer (Axon Instruments/Molecular Devices, Sunnyvale, Calif.). Experimental protocols were controlled and data acquired by a personal computer using the Clampex 8.2 software (Axon Instruments). CNPs were inserted into a standard electrode holder until the metal wire of the holder came in contact with the inner carbon film of the CNP. A slight positive pressure was applied through the holder's perfixion port to keep external solution from filling the hollow CNP by capillarity. A micromanipulator (Narishige MHW-3) was used to manipulate and position the CNP electrodes during the electrophysiology measurements. All the electrical measurements were carried out versus an AgIAgCl reference electrode submerged in HBSS in discontinuous current clamp @CC) mode, at zero current, with no capacitance compensation. The CNP potential was nulled (+I-2 mV) with the amplifier offset potential during immersion in HBSS before all electrical measurements. Recorded electrical measurements were not adjusted to compensate for differences in extracellular and intracellular junction potentials.

[2] = system: GABAA receptor; assay: CNP-recorded membrane potential of HT-22 cells during pharmacological stimulation (GABA, bicuculline), current-clamp; type: cell-based, mouse
Description: Y-aminobutyric acid (GABA), a principal inhibitory neurotransmitter in the mammalian central nervous system which acts as an agonist for the membrane-bound GABAA receptor, was administered. When GABA binds to the GABAA receptor, the cell hyperpolarizes as a result of C1-ion influx due to the opening of the ligand-gated C1-ion channel. However, the hyperpolarization can be blocked by perfusing cells with bicuculline (BIC), a competitive antagonist for the GABAA receptor which binds to the GABAA receptor and prevents it from opening even in the presence of GABA.
FIG. 10A illustrates how an HT-22 cell responded when GABA was added to the cell bath (12 mM GABA in bath, arrow).
FIG. 10B represents the opposing membrane responses to such stimuli over time.

## [Cl-].[K+] [KCl, Potassium chloride]
[1]; additional 5 mM K+, RMP -57 mV, FIG. 8C
  depolarization of membrane potential: 10 mV
[1]; additional 15 mM K+, RMP -57 mV, FIG. 8C, FIG. 10B
  depolarization of membrane potential: 30 mV and 25 mV
[1]; additional 25 mM K+, RMP -68 mV, FIG. 8B
  depolarization of membrane potential: 40 mV
[1]; additional 5 mM K+, normal HBSS perfusion
  time for cell to return to its RMP: ~90 s
[1]; additional 15 mM K+, HBSS perfusion
  time for cell to return to its RMP: ~90 s and 60 s

## NCCCC(=O)O [GABA, Y-aminobutyric acid]
[2]; 12 mM GABA in bath, normal HBSS perfusion, FIG. 10A, FIG. 10B
  hyperpolarization from the RMP: 10 mV and 12 mV
[2]; after 12 mM GABA, constant HBSS perfusion
  time for cell to return to its RMP: 30 s and 60 s
